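96-well plates; 48 h exposure; 5 concentrations. Endpoints by linear interpolation between flanking doses. Not reached: highest tested concentration assigned. GI50 = concentration required for 50% inhibition of growth.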 Calls of active or inactive are those of the source. Rule as the data show it: active = GI50 up to about 1.1 µM and inactive = higher.
Assays:
Assay in all cases: NCI tumour cell line growth inhibition, 48 h
A498 = system: A498
A549 = system: A549
CAKI-1 = system: CAKI-1
KM12 = system: KM12
NCI-H460 = system: NCI-H460
NCI-H522 = system: NCI-H522
SF-268 = system: SF-268
SF-295 = system: SF-295
SF-539 = system: SF-539
SN12C = system: SN12C
SNB-19 = system: SNB-19
U-251 = system: U-251
COLO 205 = system: COLO 205
OVCAR-3 = system: OVCAR-3
HCT-116 = system: HCT-116

Compound	GI50 (A498)	GI50 (A549)	GI50 (CAKI-1)	GI50 (KM12)	GI50 (NCI-H460)	GI50 (NCI-H522)	GI50 (SF-268)	GI50 (SF-295)	GI50 (SF-539)	GI50 (SN12C)	GI50 (SNB-19)	GI50 (U-251)	GI50 (COLO 205)	GI50 (OVCAR-3)	GI50 (HCT-116)
O=c1[nH]c(=O)n(C2CC(O)C(CO)O2)cc1/C=C/Br (stereo not given)	> 100 µM (inactive)	> 100 µM (inactive)	> 100 µM (inactive)	> 100 µM (inactive)	> 100 µM (inactive)	> 100 µM (inactive)	> 100 µM (inactive)	> 100 µM (inactive)	> 100 µM (inactive)	> 100 µM (inactive)	> 100 µM (inactive)	> 100 µM (inactive)			
CCOC(=O)C1C(=S)NC(=O)C1C#N (stereo not given)		> 100 µM (inactive)	> 100 µM (inactive)	> 100 µM (inactive)	> 100 µM (inactive)	> 100 µM (inactive)	> 100 µM (inactive)	> 100 µM (inactive)	> 100 µM (inactive)	> 100 µM (inactive)	> 100 µM (inactive)	> 100 µM (inactive)	> 100 µM (inactive)	> 100 µM (inactive)	
CNCCCCN(C)/[N+]([O-])=N\O		> 100 µM (inactive)	> 100 µM (inactive)	> 100 µM (inactive)	> 100 µM (inactive)	> 100 µM (inactive)	> 100 µM (inactive)	> 100 µM (inactive)	> 100 µM (inactive)	> 100 µM (inactive)	> 100 µM (inactive)	> 100 µM (inactive)	> 100 µM (inactive)	> 100 µM (inactive)	> 100 µM (inactive)
COc1nc(NC2OC(COC(C)=O)C(OC(C)=O)C(OC(C)=O)C2OC(C)=O)c(/N=C(\C)C(C)=O)c(=O)n1C (stereo not given)	> 100 µM (inactive)	> 100 µM (inactive)	> 100 µM (inactive)	> 100 µM (inactive)	> 100 µM (inactive)			> 100 µM (inactive)	> 100 µM (inactive)	> 100 µM (inactive)	> 100 µM (inactive)	> 100 µM (inactive)	> 100 µM (inactive)	> 100 µM (inactive)	> 100 µM (inactive)
CC(=O)N1CCC2(c3ccccc3N(C(C)=O)C2c2ccc(O)cc2)C1C(=O)O (stereo not given)	> 100 µM (inactive)	> 100 µM (inactive)		> 100 µM (inactive)		> 100 µM (inactive)	> 100 µM (inactive)	> 100 µM (inactive)	> 100 µM (inactive)	> 100 µM (inactive)	> 100 µM (inactive)	> 100 µM (inactive)	> 100 µM (inactive)	> 100 µM (inactive)	> 100 µM (inactive)
CSc1c(C)c(C)nn1-c1ccccc1	> 100 µM (inactive)	> 100 µM (inactive)	> 100 µM (inactive)	> 100 µM (inactive)	> 100 µM (inactive)	> 100 µM (inactive)	> 100 µM (inactive)	> 100 µM (inactive)	> 100 µM (inactive)	> 100 µM (inactive)	> 100 µM (inactive)	> 100 µM (inactive)	> 100 µM (inactive)		
CC(C)(c1cn(Cc2ccccc2)c2ccccc12)c1cn(Cc2ccccc2)c2ccccc12		> 100 µM (inactive)	> 100 µM (inactive)	> 100 µM (inactive)	> 100 µM (inactive)	76.9 µM (inactive)	> 100 µM (inactive)	> 100 µM (inactive)	> 100 µM (inactive)	1.7 µM (inactive)		> 100 µM (inactive)	> 100 µM (inactive)	> 100 µM (inactive)	> 100 µM (inactive)
CC(C)(C)OC1=C(OC(C)(C)C)C(O)(c2ccccc2)C1=O (stereo not given)	> 100 µM (inactive)	> 100 µM (inactive)		> 100 µM (inactive)	> 100 µM (inactive)		> 100 µM (inactive)	> 100 µM (inactive)	> 100 µM (inactive)	> 100 µM (inactive)	> 100 µM (inactive)	> 100 µM (inactive)	> 100 µM (inactive)	> 100 µM (inactive)	
COC(=O)C1=C(C(=O)OC)C2(C3C(SC)=CC(C)(C)CC3S1)N(Cc1ccccc1)CCN2Cc1ccccc1 (stereo not given)		> 100 µM (inactive)	> 100 µM (inactive)	> 100 µM (inactive)	> 100 µM (inactive)	> 100 µM (inactive)	> 100 µM (inactive)	> 100 µM (inactive)	> 100 µM (inactive)	> 100 µM (inactive)	> 100 µM (inactive)	> 100 µM (inactive)	> 100 µM (inactive)	> 100 µM (inactive)	> 100 µM (inactive)
C[N+]1(C)CCCC1C(=O)[O-] (stereo not given)	> 100 µM (inactive)	> 100 µM (inactive)		> 100 µM (inactive)	> 100 µM (inactive)	> 100 µM (inactive)	> 100 µM (inactive)	> 100 µM (inactive)	> 100 µM (inactive)	> 100 µM (inactive)	> 100 µM (inactive)	> 100 µM (inactive)	> 100 µM (inactive)	> 100 µM (inactive)	> 100 µM (inactive)
CCCCCCCCCCCC(=O)C1=C(O)CC(O)CC1=O (stereo not given)		59.4 µM (inactive)	> 100 µM (inactive)	59.4 µM (inactive)	> 100 µM (inactive)	> 100 µM (inactive)	> 100 µM (inactive)	84.1 µM (inactive)	> 100 µM (inactive)	> 100 µM (inactive)	> 100 µM (inactive)	91.8 µM (inactive)	> 100 µM (inactive)	82.6 µM (inactive)	> 100 µM (inactive)
CC(=O)c1c2c(cc3c1CC1(C3)Cc3cc4c(c(C(C)=O)c3C1)CCC4)CCC2		> 100 µM (inactive)	> 100 µM (inactive)	> 100 µM (inactive)	> 100 µM (inactive)	> 100 µM (inactive)	> 100 µM (inactive)	> 100 µM (inactive)	> 100 µM (inactive)	> 100 µM (inactive)	> 100 µM (inactive)	> 100 µM (inactive)	> 100 µM (inactive)	> 100 µM (inactive)	> 100 µM (inactive)
O=c1cc2ccccc2nn1Cc1cccc(Cl)c1	> 100 µM (inactive)	49.8 µM (inactive)	> 100 µM (inactive)	> 100 µM (inactive)	> 100 µM (inactive)		90.2 µM (inactive)	> 100 µM (inactive)	> 100 µM (inactive)	97.9 µM (inactive)	> 100 µM (inactive)	> 100 µM (inactive)	> 100 µM (inactive)	62.2 µM (inactive)	78.9 µM (inactive)
CC1=CC=NN2C(=O)[C@H](C)C2C1 (stereo not given in full)	> 100 µM (inactive)	> 100 µM (inactive)		> 100 µM (inactive)	> 100 µM (inactive)	> 100 µM (inactive)	> 100 µM (inactive)	> 100 µM (inactive)	> 100 µM (inactive)	> 100 µM (inactive)	> 100 µM (inactive)	> 100 µM (inactive)	> 100 µM (inactive)	> 100 µM (inactive)	> 100 µM (inactive)
Cc1ccc(S(=O)(=O)C(CC(=O)N2CCCC2)C(=O)c2ccccc2)cc1 (stereo not given)		> 100 µM (inactive)	46.9 µM (inactive)	> 100 µM (inactive)	> 100 µM (inactive)	89.3 µM (inactive)	83.4 µM (inactive)	> 100 µM (inactive)	> 100 µM (inactive)	> 100 µM (inactive)	> 100 µM (inactive)	> 100 µM (inactive)	> 100 µM (inactive)	> 100 µM (inactive)	55.6 µM (inactive)
Nc1ncnc2sc(Nc3ccccc3)nc12		> 100 µM (inactive)	55.5 µM (inactive)	> 100 µM (inactive)	> 100 µM (inactive)	28 µM (inactive)	> 100 µM (inactive)	> 100 µM (inactive)	> 100 µM (inactive)	80.4 µM (inactive)	> 100 µM (inactive)	56.6 µM (inactive)	> 100 µM (inactive)	> 100 µM (inactive)	
CC(C)(C)c1cc2nc(c1)C(C(F)(F)F)(C(F)(F)F)OB(Br)OC2(C(F)(F)F)C(F)(F)F		< 0.01 µM (active)	0.0414 µM (active)	< 0.01 µM (active)			3.01 µM (inactive)	0.0834 µM (active)	0.316 µM (active)	0.173 µM (active)	0.156 µM (active)	0.084 µM (active)	< 0.01 µM (active)	< 0.01 µM (active)	
CC1CCC2CC(=O)OC([C@@H]3C(=O)O[C@@H](C4=CCCC4)C4C(C)CCC43)C12 (stereo not given in full)		> 100 µM (inactive)	72.6 µM (inactive)	42 µM (inactive)	58.1 µM (inactive)	51.3 µM (inactive)	> 100 µM (inactive)	79.1 µM (inactive)	> 100 µM (inactive)	> 100 µM (inactive)	> 100 µM (inactive)	48.6 µM (inactive)	32.4 µM (inactive)	73.1 µM (inactive)	43.9 µM (inactive)
Cc1c2cc[n+](C)cc2c(C)c2c1[nH]c1ccc(OCC(F)(F)F)cc12		1.53 µM (inactive)	8.34 µM (inactive)	2.53 µM (inactive)	1.85 µM (inactive)	1.63 µM (inactive)	0.376 µM (active)	0.327 µM (active)	1.25 µM (inactive)	0.277 µM (active)	0.817 µM (active)	0.256 µM (active)	1.46 µM (inactive)	2.59 µM (inactive)	3.95 µM (inactive)
COc1ccc(-c2cc(=O)c3ccc(O)cc3o2)c(OC)c1OC		55.7 µM (inactive)	89.3 µM (inactive)	71.1 µM (inactive)		25.4 µM (inactive)	41.3 µM (inactive)	46.5 µM (inactive)	46 µM (inactive)	82.8 µM (inactive)	65 µM (inactive)		95.9 µM (inactive)	41.9 µM (inactive)	51.9 µM (inactive)

Source: ChEMBL document CHEMBL1201862, “PubChem BioAssay data set” (2004)
